Test results taken from patent US7786054B2, “Biocide for well stimulation and treatment fluids” (Kemira Chemicals, Inc., priority 2006, dated 2010).
“Also recorded” adds a separate entry of the source.

What was measured:
[1] = system: acid producing bacteria (AB); assay: Biocidal effectiveness on acid producing bacteria in spiked frac pond water, serial dilution counts over 180 days with challenges; assay type: cell-based
Experimental: (§1) In this example, the biocidal effectiveness on sulfate reducing bacteria (SRB) and acid producing bacteria (AB) for biocide formulations containing CB Thione and WB Thione to Glut and THPS was examined.
(§2) A one gallon sample was separated from a five gallon sample of frac pond water for these studies. The frac pond water sample included SRB and AB. Ten mL of a 10^9 cfu/mL inoculum of SRB grown in anaerobic API broth containing an O2 scavenger and 10 mL of a 10^9 cfu/mL inoculum of AB grown in anaerobic phenol red (anPR) broth containing an O2 scavenger were added to the one gallon frac pond water sample, mixed well and allowed to incubate for a period of time sufficient to achieve a desired number of SRB and AB. All broth media for inoculum and serial dilution counts in this study was made at 4% salinity to match the salinity of the original frac pond water measured by total dissolved solids testing. To increase nutrient value and to emulate on-site friction reducing additives, a 30 weight % acrylic acid, 70% acrylamide copolymer was added to the inoculated gallon of frac pond water sample at 300 ppm and then referred to as the spiked frac pond water sample. The spiked sample was then divided into 99.0 g aliquots for testing the effect of various biocides at various concentrations on the SRB and AB over a 180 day contact time. One spiked aliquot would serve as the control sample to which no biocide would be added. Challenges were made to all aliquots using 0.5 mL of 10^8 SRB and 0.5 mL, of 10^8 AB at 14, 28, and 129 days contact time.
(§3) The biocides included a 20% water based Thione (WB Thione), a 24% caustic based Thione (CB Thione), a 25% Glut, and a 35% THPS. Stock biocide solutions of various concentrations were made from these biocides as described below.
(§4) The WB Thione stock solutions were prepared by adding 3.0 g of the biocide to 17.0 g of sterile distilled water to form an intermediate solution, followed by combining each intermediate solution with water in the accounts shown in Table 1 below to make the descending concentrations as shown in Table 1.
as §4, with “The CB” for “The WB”, “the amounts” for “the accounts”, “Table 2” for “Table 1”, “Table 2.” for “Table 1.”
(§5) The Glut stock solutions were prepared by adding 1.0 g biocide to 19.0 g of sterile distilled water to form an intermediate solution, followed by combining each intermediate solution with water in the amounts shown in Table 3 below to make the descending concentrations as shown in Table 3.
(§6) The THPS stock solutions were prepared by adding 1.0 g of the biocide to 19.0 g of sterile distilled water to form an intermediate solution, followed by combining each intermediate solution with water in the amounts shown in Table 4 below to make the descending concentrations as shown in Table 4.
(§7) Next, 1 g of each biocide stock solution was added to the appropriately labeled 99.0 g aliquot. Also, 1.0 g of sterile water was added to the control aliquot. The concentrations of the biocides present in each aliquot are provided below in Table 5.
(§8) The aliquots were then incubated at room temperature in the dark for the entire study, i.e., 6 months. […] Using sterile syringes, this testing was performed by serial diluting the aliquots into sealed 9.0 mL anaerobic API broth and anaerobic PR broth bottles, both media containing an O2 scavenger, in the appropriate labeled set of SRB bottles (6 for each aliquot) mid AB bottles (6 for each aliquot) until a color change occurred, indicating the log quantity of organisms present in each aliquot.

[2] = system: sulfate reducing bacteria (SRB); assay: Biocidal effectiveness on sulfate reducing bacteria in spiked frac pond water, serial dilution counts over 180 days with challenges; assay type: cell-based
Experimental: as §1, §2, §3, §4
as §4, with “The CB” for “The WB”, “the amounts” for “the accounts”, “Table 2” for “Table 1”, “Table 2.” for “Table 1.”
as §5, §6, §7, §8

[3] = 500 ppm as is (Glut, THPS), 7 Days
[4] = 500 ppm as is (Glut, THPS), 14 Days
[5] = 500 ppm as is (Glut, THPS), 21 Days
[6] = 500 ppm as is (Glut, THPS), 28 Days
[7] = 500 ppm as is (Glut, THPS), 35 Days
[8] = 500 ppm as is (Glut, THPS), 42 Days
[9] = 500 ppm as is (Glut, THPS), 58 Days
[10] = 500 ppm as is (Glut, THPS), 90 Days
[11] = up to 180 days contact time, challenges at 14, 28 and 129 days

O=S(=O)([O-])[O-].OC[P+](CO)(CO)CO.OC[P+](CO)(CO)CO [THPS, tetra-kis-hydroxymethyly-phosphonium sulfate]
Log 10 Anaerobic Acid Producing Bacteria/mL ([1]; 50 ppm as is, 7 Days): 5 Log 10 Bacteria/mL
Log 10 Anaerobic Acid Producing Bacteria/mL ([1]; 50 ppm as is, 14 Days): ≧6 Log 10 Bacteria/mL
Log 10 Anaerobic Acid Producing Bacteria/mL ([1]; 50 ppm as is, 21 Days): ≧6 Log 10 Bacteria/mL
Log 10 Anaerobic Acid Producing Bacteria/mL ([1]; 50 ppm as is, 28 Days): ≧6 Log 10 Bacteria/mL
Log 10 Anaerobic Acid Producing Bacteria/mL ([1]; 50 ppm as is, 35 Days): ≧6 Log 10 Bacteria/mL
Log 10 Anaerobic Acid Producing Bacteria/mL ([1]; 50 ppm as is, 42 Days): ≧6 Log 10 Bacteria/mL
Log 10 Anaerobic Acid Producing Bacteria/mL ([1]; 50 ppm as is, 58 Days): ≧6 Log 10 Bacteria/mL
Log 10 Anaerobic Acid Producing Bacteria/mL ([1]; 50 ppm as is, 90 Days): ≧6 Log 10 Bacteria/mL
Log 10 Anaerobic Acid Producing Bacteria/mL ([1]; 100 ppm as is, 7 Days): 5 Log 10 Bacteria/mL
Log 10 Anaerobic Acid Producing Bacteria/mL ([1]; 100 ppm as is, 14 Days): 5 Log 10 Bacteria/mL
Log 10 Anaerobic Acid Producing Bacteria/mL ([1]; 100 ppm as is, 21 Days): ≧6 Log 10 Bacteria/mL
Log 10 Anaerobic Acid Producing Bacteria/mL ([1]; 100 ppm as is, 28 Days): ≧6 Log 10 Bacteria/mL
Log 10 Anaerobic Acid Producing Bacteria/mL ([1]; 100 ppm as is, 35 Days): ≧6 Log 10 Bacteria/mL
Log 10 Anaerobic Acid Producing Bacteria/mL ([1]; 100 ppm as is, 42 Days): ≧6 Log 10 Bacteria/mL
Log 10 Anaerobic Acid Producing Bacteria/mL ([1]; 100 ppm as is, 58 Days): ≧6 Log 10 Bacteria/mL
Log 10 Anaerobic Acid Producing Bacteria/mL ([1]; 100 ppm as is, 90 Days): ≧5 Log 10 Bacteria/mL
Log 10 Anaerobic Acid Producing Bacteria/mL ([1]; 200 ppm as is, 7 Days): 1 Log 10 Bacteria/mL
Log 10 Anaerobic Acid Producing Bacteria/mL ([1]; 200 ppm as is, 14 Days): 0 Log 10 Bacteria/mL
Log 10 Anaerobic Acid Producing Bacteria/mL ([1]; 200 ppm as is, 21 Days): ≧6 Log 10 Bacteria/mL
Log 10 Anaerobic Acid Producing Bacteria/mL ([1]; 200 ppm as is, 28 Days): ≧6 Log 10 Bacteria/mL
Log 10 Anaerobic Acid Producing Bacteria/mL ([1]; 200 ppm as is, 35 Days): ≧6 Log 10 Bacteria/mL
Log 10 Anaerobic Acid Producing Bacteria/mL ([1]; 200 ppm as is, 42 Days): ≧6 Log 10 Bacteria/mL
Log 10 Anaerobic Acid Producing Bacteria/mL ([1]; 200 ppm as is, 58 Days): ≧6 Log 10 Bacteria/mL
Log 10 Anaerobic Acid Producing Bacteria/mL ([1]; 200 ppm as is, 90 Days): ≧6 Log 10 Bacteria/mL
Log 10 Anaerobic Acid Producing Bacteria/mL [1, 3]: 0 Log 10 Bacteria/mL
Log 10 Anaerobic Acid Producing Bacteria/mL [1, 4]: 0 Log 10 Bacteria/mL
Log 10 Anaerobic Acid Producing Bacteria/mL [1, 5]: 4 Log 10 Bacteria/mL
Log 10 Anaerobic Acid Producing Bacteria/mL [1, 6]: 3 Log 10 Bacteria/mL
Log 10 Anaerobic Acid Producing Bacteria/mL [1, 7]: 4 Log 10 Bacteria/mL
Log 10 Anaerobic Acid Producing Bacteria/mL [1, 8]: 3 Log 10 Bacteria/mL
Log 10 Anaerobic Acid Producing Bacteria/mL [1, 9]: ≧6 Log 10 Bacteria/mL
Log 10 Anaerobic Acid Producing Bacteria/mL [1, 10]: ≧6 Log 10 Bacteria/mL
control of AB in frac pond water (summary in words) [1, 11]: lost all control of SRB and AB from 1 to 21 days contact time; also recorded: failed after challenging once at 14 days contact time
Log 10 Anaerobic Sulfate Reducing Bacteria/mL ([2]; 60 ppm as is (DA), 7 Days): ≧6 Log 10 Bacteria/mL
Log 10 Anaerobic Sulfate Reducing Bacteria/mL ([2]; 60 ppm as is (DA), 14 Days): ≧6 Log 10 Bacteria/mL
Log 10 Anaerobic Sulfate Reducing Bacteria/mL ([2]; 60 ppm as is (DA), 21 Days): ≧5 Log 10 Bacteria/mL
Log 10 Anaerobic Sulfate Reducing Bacteria/mL ([2]; 60 ppm as is (DA), 28 Days): ≧6 Log 10 Bacteria/mL
Log 10 Anaerobic Sulfate Reducing Bacteria/mL ([2]; 60 ppm as is (DA), 35 Days): ≧6 Log 10 Bacteria/mL
Log 10 Anaerobic Sulfate Reducing Bacteria/mL ([2]; 60 ppm as is (DA), 42 Days): ≧6 Log 10 Bacteria/mL
Log 10 Anaerobic Sulfate Reducing Bacteria/mL ([2]; 60 ppm as is (DA), 58 Days): ≧6 Log 10 Bacteria/mL
Log 10 Anaerobic Sulfate Reducing Bacteria/mL ([2]; 60 ppm as is (DA), 90 Days): ≧6 Log 10 Bacteria/mL
Log 10 Anaerobic Sulfate Reducing Bacteria/mL ([2]; 100 ppm as is, 7 Days): 5 Log 10 Bacteria/mL
Log 10 Anaerobic Sulfate Reducing Bacteria/mL ([2]; 100 ppm as is, 14 Days): 5 Log 10 Bacteria/mL
Log 10 Anaerobic Sulfate Reducing Bacteria/mL ([2]; 100 ppm as is, 21 Days): ≧5 Log 10 Bacteria/mL
Log 10 Anaerobic Sulfate Reducing Bacteria/mL ([2]; 100 ppm as is, 28 Days): ≧6 Log 10 Bacteria/mL
Log 10 Anaerobic Sulfate Reducing Bacteria/mL ([2]; 100 ppm as is, 35 Days): ≧6 Log 10 Bacteria/mL
Log 10 Anaerobic Sulfate Reducing Bacteria/mL ([2]; 100 ppm as is, 42 Days): ≧6 Log 10 Bacteria/mL
Log 10 Anaerobic Sulfate Reducing Bacteria/mL ([2]; 100 ppm as is, 58 Days): ≧6 Log 10 Bacteria/mL
Log 10 Anaerobic Sulfate Reducing Bacteria/mL ([2]; 100 ppm as is, 90 Days): ≧6 Log 10 Bacteria/mL
Log 10 Anaerobic Sulfate Reducing Bacteria/mL ([2]; 200 ppm as is, 7 Days): 0 Log 10 Bacteria/mL
Log 10 Anaerobic Sulfate Reducing Bacteria/mL ([2]; 200 ppm as is, 14 Days): 0 Log 10 Bacteria/mL
Log 10 Anaerobic Sulfate Reducing Bacteria/mL ([2]; 200 ppm as is, 21 Days): ≧6 Log 10 Bacteria/mL
Log 10 Anaerobic Sulfate Reducing Bacteria/mL ([2]; 200 ppm as is, 28 Days): ≧6 Log 10 Bacteria/mL
Log 10 Anaerobic Sulfate Reducing Bacteria/mL ([2]; 200 ppm as is, 35 Days): ≧6 Log 10 Bacteria/mL
Log 10 Anaerobic Sulfate Reducing Bacteria/mL ([2]; 200 ppm as is, 42 Days): ≧6 Log 10 Bacteria/mL
Log 10 Anaerobic Sulfate Reducing Bacteria/mL ([2]; 200 ppm as is, 58 Days): ≧6 Log 10 Bacteria/mL
Log 10 Anaerobic Sulfate Reducing Bacteria/mL ([2]; 200 ppm as is, 90 Days): ≧6 Log 10 Bacteria/mL
Log 10 Anaerobic Sulfate Reducing Bacteria/mL [2, 3]: 0 Log 10 Bacteria/mL
Log 10 Anaerobic Sulfate Reducing Bacteria/mL [2, 4]: 0 Log 10 Bacteria/mL
Log 10 Anaerobic Sulfate Reducing Bacteria/mL [2, 5]: 4 Log 10 Bacteria/mL
Log 10 Anaerobic Sulfate Reducing Bacteria/mL [2, 6]: 3 Log 10 Bacteria/mL
Log 10 Anaerobic Sulfate Reducing Bacteria/mL [2, 7]: 3 Log 10 Bacteria/mL
Log 10 Anaerobic Sulfate Reducing Bacteria/mL [2, 8]: ≧6 Log 10 Bacteria/mL
Log 10 Anaerobic Sulfate Reducing Bacteria/mL [2, 9]: ≧6 Log 10 Bacteria/mL
Log 10 Anaerobic Sulfate Reducing Bacteria/mL [2, 10]: ≧6 Log 10 Bacteria/mL
control of SRB in frac pond water (summary in words) [2, 11]: lost all control of SRB and AB from 1 to 21 days contact time; also recorded: failed completely after challenging once at 14 days contact time at all concentrations
